Assay results taken from patent US8710065B2, “Tricyclic inhibitors of kinases” (AbbVie Inc., priority 2011, dated 2014).

Molecular target: T1, GST-tagged-Wee1 kinase (Homo sapiens, UniProt P30291)
T1 construct: purchased Carnabio (Carna Biosciences) 05-177
Assay: Wee1 time-resolved fluorescence equilibrium binding assay (displacement of Oregon Green-labeled ATP-competitive kinase probe)
Settings: read-out: Wee-1 inhibition (Ki)
Experimental: Wee1 kinase was assayed using a time-resolved fluorescence equilibrium binding assay monitoring displacement of a rapidly reversible Oregon Green-labeled ATP-competitive kinase probe (N-(2-(2-(2-(4-(4-(5-chloro-4-(2-(1-hydroxycyclobutyl)thiazol-5-yl)-1H-pyrrolo[2,3-b]pyridin-2-yl)phenyl)piperazin-1-yl)ethoxy)ethoxy)ethyl)-2′,7′-difluoro-3′,6′-dihydroxy-3-oxo-3H-spiro[isobenzofuran-1,9′-xanthene]-5-carboxamide) by competitive Wee1 inhibitors.
Table 1 depicts enzyme inhibition data (Ki) for exemplary compounds.

T1 sequence (P30291 whole entry): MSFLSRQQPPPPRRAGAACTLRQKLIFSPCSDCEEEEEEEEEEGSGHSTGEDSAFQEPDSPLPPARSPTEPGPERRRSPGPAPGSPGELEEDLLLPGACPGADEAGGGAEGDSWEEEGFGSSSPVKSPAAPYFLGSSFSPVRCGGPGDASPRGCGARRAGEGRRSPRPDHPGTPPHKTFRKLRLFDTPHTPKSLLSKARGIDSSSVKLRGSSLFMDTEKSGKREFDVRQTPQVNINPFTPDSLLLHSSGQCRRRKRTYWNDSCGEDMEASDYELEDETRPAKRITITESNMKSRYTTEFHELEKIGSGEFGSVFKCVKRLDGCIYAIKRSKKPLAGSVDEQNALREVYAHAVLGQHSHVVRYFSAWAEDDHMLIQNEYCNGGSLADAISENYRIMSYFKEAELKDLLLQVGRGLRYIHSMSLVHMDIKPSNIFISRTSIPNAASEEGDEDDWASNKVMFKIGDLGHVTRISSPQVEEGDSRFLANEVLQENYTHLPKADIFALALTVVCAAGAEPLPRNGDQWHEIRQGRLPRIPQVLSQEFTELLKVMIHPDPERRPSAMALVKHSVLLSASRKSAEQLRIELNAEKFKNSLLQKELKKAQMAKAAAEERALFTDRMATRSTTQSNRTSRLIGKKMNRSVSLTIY

Q: How did the Ki turn out when `COCCN1CCN(c2ccc(Nc3ncc4c(=O)n(-c5ccccc5Cl)c5nccn5c4n3)cc2)CC1` [Example 64, 6-(2-chlorophenyl)-2-({4-[4-(2-methoxyethyl)piperazin-1-yl]phenyl}amino)imidazo[1,2-a]pyrimido[5,4-e]pyrimidin-5(6H)-one] was run?
A: < 0.01 µM

Q: For `COc1cc(Nc2ncc3c(=O)n(-c4ccccc4Cl)c4nccn4c3n2)ccc1N1CCN(C)CC1` [Example 65, 6-(2-chlorophenyl)-2-{[3-methoxy-4-(4-methylpiperazin-1-yl)phenyl]amino}imidazo[1,2-a]pyrimido[5,4-e]pyrimidin-5(6H)-one], which Ki is on record?
A: < 0.01 µM

Q: For `COc1cc(Nc2ncc3c(=O)n(-c4ccccc4Cl)c4nccn4c3n2)ccc1N1CCN(C(C)C)CC1` [Example 66, 6-(2-chlorophenyl)-2-({3-methoxy-4-[4-(propan-2-yl)piperazin-1-yl]phenyl}amino)imidazo[1,2-a]pyrimido[5,4-e]pyrimidin-5(6H)-one], which Ki is on record?
A: < 0.01 µM

Q: Which Ki does the source give for `COc1cc(Nc2ncc3c(=O)n(-c4ccccc4Cl)c4nccn4c3n2)ccc1OCCN1CCN(C)CC1` [Example 67, 6-(2-chlorophenyl)-2-({3-methoxy-4-[2-(4-methylpiperazin-1-yl)ethoxy]phenyl}amino)imidazo[1,2-a]pyrimido[5,4-e]pyrimidin-5(6H)-one] here?
A: < 0.01 µM

Q: Which Ki does the source give for `O=c1c2cnc(Nc3ccccc3)nc2n2ccnc2n1-c1cccc(O)c1` [Example 68, 6-(3-hydroxyphenyl)-2-(phenylamino)imidazo[1,2-a]pyrimido[5,4-e]pyrimidin-5(6H)-one] here?
A: 0.01 to 0.1 µM

Q: With `Cc1ccc(Nc2ncc3c(=O)n(-c4ccccc4Cl)c4nccn4c3n2)cc1` [Example 69, 6-(2-chlorophenyl)-2-[(4-methylphenyl)amino]imidazo[1,2-a]pyrimido[5,4-e]pyrimidin-5(6H)-one] as the compound, how does the Ki read?
A: 0.01 to 0.1 µM

Q: Which Ki does the source give for `O=c1c2cnc(Nc3ccc(C4CCCCN4)cc3)nc2n2ccnc2n1-c1ccccc1Cl` (centres unmarked) [Example 70, 6-(2-chlorophenyl)-2-{[4-(piperidin-2-yl)phenyl]amino}imidazo[1,2-a]pyrimido[5,4-e]pyrimidin-5(6H)-one] here?
A: < 0.01 µM

Q: With `O=c1c2cnc(Nc3ccc(C4CCCN4)cc3)nc2n2ccnc2n1-c1ccccc1Cl` (centres unmarked) [Example 71, 6-(2-chlorophenyl)-2-{[4-(pyrrolidin-2-yl)phenyl]amino}imidazo[1,2-a]pyrimido[5,4-e]pyrimidin-5(6H)-one] as the compound, how does the Ki read?
A: < 0.01 µM

Q: With `O=c1c2cnc(Nc3ccc(C4CCNC4)cc3)nc2n2ccnc2n1-c1ccccc1Cl` (centres unmarked) [Example 72, 6-(2-chlorophenyl)-2-{[4-(pyrrolidin-3-yl)phenyl]amino}imidazo[1,2-a]pyrimido[5,4-e]pyrimidin-5(6H)-one] as the compound, how does the Ki read?
A: < 0.01 µM

Q: How did the Ki turn out when `CN1Cc2cc(Nc3ncc4c(=O)n(-c5c(Cl)cccc5Cl)c5nccn5c4n3)ccc2C2(CC2)C1` [Example 73, 6-(2,6-dichlorophenyl)-2-[(2′-methyl-2′,3′-dihydro-1′H-spiro[cyclopropane-1,4′-isoquinolin]-7′-yl)amino]imidazo[1,2-a]pyrimido[5,4-e]pyrimidin-5(6H)-one] was run?
A: < 0.01 µM

Q: Which Ki does the source give for `Cc1cc(Nc2ncc3c(=O)n(-c4c(Cl)cccc4Cl)c4nccn4c3n2)ccc1N1CCCN(C)CC1` [Example 74, 6-(2,6-dichlorophenyl)-2-{[3-methyl-4-(4-methyl-1,4-diazepan-1-yl)phenyl]amino}imidazo[1,2-a]pyrimido[5,4-e]pyrimidin-5(6H)-one] here?
A: < 0.01 µM

Q: `O=c1c2cnc(Nc3ccc(N4CCNCC4)c(C(F)(F)F)c3)nc2n2ccnc2n1-c1ccccc1Cl` [Example 75, 6-(2-chlorophenyl)-2-{[4-(piperazin-1-yl)-3-(trifluoromethyl)phenyl]amino}imidazo[1,2-a]pyrimido[5,4-e]pyrimidin-5(6H)-one] was tested. Which Ki did it give?
A: < 0.01 µM

Q: `O=c1c2cnc(Nc3ccc(OC[C@@H]4CCCN4)cc3)nc2n2ccnc2n1-c1ccccc1Cl` [Example 76, 6-(2-chlorophenyl)-2-({4-[(2S)-pyrrolidin-2-ylmethoxy]phenyl}amino)imidazo[1,2-a]pyrimido[5,4-e]pyrimidin-5(6H)-one] was tested. Which Ki did it give?
A: < 0.01 µM

Q: With `Cc1cc(OCCCN2CCN(C)CC2)ccc1Nc1ncc2c(=O)n(-c3ccccc3Cl)c3nccn3c2n1` [Example 77, 6-(2-chlorophenyl)-2-({2-methyl-4-[3-(4-methylpiperazin-1-yl)propoxy]phenyl}amino)imidazo[1,2-a]pyrimido[5,4-e]pyrimidin-5(6H)-one] as the compound, how does the Ki read?
A: > 0.1 µM

Q: With `O=c1c2cnc(Nc3ccc(CN4CCOCC4)cc3)nc2n2ccnc2n1-c1ccccc1Cl` [Example 78, 6-(2-chlorophenyl)-2-{[4-(morpholin-4-ylmethyl)phenyl]amino}imidazo[1,2-a]pyrimido[5,4-e]pyrimidin-5(6H)-one] as the compound, how does the Ki read?
A: < 0.01 µM

Q: For `O=c1c2cnc(Nc3ccc(Cn4ccnc4)cc3)nc2n2ccnc2n1-c1ccccc1Cl` [Example 79, 6-(2-chlorophenyl)-2-{[4-(1H-imidazol-1-ylmethyl)phenyl]amino}imidazo[1,2-a]pyrimido[5,4-e]pyrimidin-5(6H)-one], which Ki is on record?
A: < 0.01 µM

Q: How did the Ki turn out when `O=c1c2cnc(Nc3ccc(-n4ccnc4)cc3)nc2n2ccnc2n1-c1ccccc1Cl` [Example 80, 6-(2-chlorophenyl)-2-{[4-(1H-imidazol-1-yl)phenyl]amino}imidazo[1,2-a]pyrimido[5,4-e]pyrimidin-5(6H)-one] was run?
A: 0.01 to 0.1 µM

Q: For `O=c1c2cnc(Nc3ccc(N4CCNCC4)nc3)nc2n2ccnc2n1-c1ccccc1Cl` [Example 81, 6-(2-chlorophenyl)-2-{[6-(piperazin-1-yl)pyridin-3-yl]amino}imidazo[1,2-a]pyrimido[5,4-e]pyrimidin-5(6H)-one], which Ki is on record?
A: < 0.01 µM

Q: `CN1CCN(CCCOc2cccc(Nc3ncc4c(=O)n(-c5ccccc5Cl)c5nccn5c4n3)c2)CC1` [Example 82, 6-(2-chlorophenyl)-2-({3-[3-(4-methylpiperazin-1-yl)propoxy]phenyl}amino)imidazo[1,2-a]pyrimido[5,4-e]pyrimidin-5(6H)-one] was tested. Which Ki did it give?
A: 0.01 to 0.1 µM

Q: `O=c1c2cnc(Nc3cccc(OCCCN4CCCCC4)c3)nc2n2ccnc2n1-c1ccccc1Cl` [Example 83, 6-(2-chlorophenyl)-2-({3-[3-(piperidin-1-yl)propoxy]phenyl}amino)imidazo[1,2-a]pyrimido[5,4-e]pyrimidin-5(6H)-one] was tested. Which Ki did it give?
A: 0.01 to 0.1 µM

Q: With `O=c1c2cnc(Nc3ccccc3)nc2n2ccnc2n1-c1c(Cl)cccc1Cl` [Example 84, 6-(2,6-dichlorophenyl)-2-(phenylamino)imidazo[1,2-a]pyrimido[5,4-e]pyrimidin-5(6H)-one] as the compound, how does the Ki read?
A: < 0.01 µM

Q: For `COc1cc(Nc2ncc3c(=O)n(-c4ccccc4Cl)c4nccn4c3n2)ccc1OCCNC(C)C` [Example 85, 6-(2-chlorophenyl)-2-({3-methoxy-4-[2-(propan-2-ylamino)ethoxy]phenyl}amino)imidazo[1,2-a]pyrimido[5,4-e]pyrimidin-5(6H)-one], which Ki is on record?
A: < 0.01 µM

Q: With `CC(C)NCCOc1ccc(Nc2ncc3c(=O)n(-c4ccccc4Cl)c4nccn4c3n2)cc1Cl` [Example 86, 6-(2-chlorophenyl)-2-({3-chloro-4-[2-(propan-2-ylamino)ethoxy]phenyl}amino)imidazo[1,2-a]pyrimido[5,4-e]pyrimidin-5(6H)-one] as the compound, how does the Ki read?
A: < 0.01 µM

Q: How did the Ki turn out when `O=c1c2cnc(Nc3ccc(CO)cc3)nc2n2ccnc2n1-c1ccccc1Cl` [Example 87, 6-(2-chlorophenyl)-2-{[4-(hydroxymethyl)phenyl]amino}imidazo[1,2-a]pyrimido[5,4-e]pyrimidin-5(6H)-one] was run?
A: 0.01 to 0.1 µM

Q: `O=c1c2cnc(Nc3ccc(Cn4cccn4)cc3)nc2n2ccnc2n1-c1ccccc1Cl` [Example 88, 6-(2-chlorophenyl)-2-{[4-(1H-pyrazol-1-ylmethyl)phenyl]amino}imidazo[1,2-a]pyrimido[5,4-e]pyrimidin-5(6H)-one] was tested. Which Ki did it give?
A: < 0.01 µM

Q: For `O=c1c2cnc(Nc3ccc(-n4cccn4)cc3)nc2n2ccnc2n1-c1ccccc1Cl` [Example 89, 6-(2-chlorophenyl)-2-{[4-(1H-pyrazol-1-yl)phenyl]amino}imidazo[1,2-a]pyrimido[5,4-e]pyrimidin-5(6H)-one], which Ki is on record?
A: 0.01 to 0.1 µM

Q: Which Ki does the source give for `O=c1c2cnc(Nc3ccc4c(c3)CNCC43CC3)nc2n2ccnc2n1-c1ccccc1Cl` [Example 90, 6-(2-chlorophenyl)-2-(2′,3′-dihydro-1′H-spiro[cyclopropane-1,4′-isoquinolin]-7′-ylamino)imidazo[1,2-a]pyrimido[5,4-e]pyrimidin-5(6H)-one] here?
A: < 0.01 µM

Q: With `CC(=O)N1Cc2cc(Nc3ncc4c(=O)n(-c5ccccc5Cl)c5nccn5c4n3)ccc2C2(CC2)C1` [Example 91, 2-[(2′-acetyl-2′,3′-dihydro-1′H-spiro[cyclopropane-1,4′-isoquinolin]-7′-yl)amino]-6-(2-chlorophenyl)imidazo[1,2-a]pyrimido[5,4-e]pyrimidin-5(6H)-one] as the compound, how does the Ki read?
A: < 0.01 µM

Q: How did the Ki turn out when `CN1CCCc2cc(Nc3ncc4c(=O)n(-c5ccccc5Cl)c5nccn5c4n3)ccc21` [Example 92, 6-(2-chlorophenyl)-2-[(1-methyl-1,2,3,4-tetrahydroquinolin-6-yl)amino]imidazo[1,2-a]pyrimido[5,4-e]pyrimidin-5(6H)-one] was run?
A: < 0.01 µM

Q: How did the Ki turn out when `CN(C)CCN1CCc2cc(Nc3ncc4c(=O)n(-c5ccccc5Cl)c5nccn5c4n3)ccc21` [Example 93, 6-(2-chlorophenyl)-2-({1-[2-(dimethylamino)ethyl]-2,3-dihydro-1H-indol-5-yl}amino)imidazo[1,2-a]pyrimido[5,4-e]pyrimidin-5(6H)-one] was run?
A: < 0.01 µM

Q: `CN(C)C1Cc2ccc(Nc3ncc4c(=O)n(-c5ccccc5Cl)c5nccn5c4n3)cc2C1` (centres unmarked) [Example 94, 6-(2-chlorophenyl)-2-{[2-(dimethylamino)-2,3-dihydro-1H-inden-5-yl]amino}imidazo[1,2-a]pyrimido[5,4-e]pyrimidin-5(6H)-one] was tested. Which Ki did it give?
A: < 0.01 µM

Q: Which Ki does the source give for `Cc1cc(Nc2ncc3c(=O)n(-c4c(F)cccc4Cl)c4nccn4c3n2)ccc1N1CCCN(C)CC1` [Example 96, 6-(2-chloro-6-fluorophenyl)-2-{[3-methyl-4-(4-methyl-1,4-diazepan-1-yl)phenyl]amino}imidazo[1,2-a]pyrimido[5,4-e]pyrimidin-5(6H)-one] here?
A: < 0.01 µM
